Measured values as given in patent US20050229276A1, “Method of producing cyclamen root tuber and method of proliferating cyclamen using the same” (Tokyo University of Agricultural, priority 2002, published 2005).

Key:
[1] = system: cyclamen (cultivar: Dressy Scarlet) seedling; assay: Growth of root tubers at cut root ends of seedlings in solid media; format: in vivo
Procedure: A cyclamen (cultivar: Dressy Scarlet) seed was immersed in an ethyl alcohol aqueous solution having an ethyl alcohol concentration of 70 wt % for 10 seconds and in a sodium hypochlorite solution having an effective chlorine concentration of 1 wt % for 10 minutes to sterilize the surface of the seed. Thereafter, this seed was washed in sterilized water 3 times to remove the sodium hypochlorite from the surface of the seed. This was sown in an MS solid medium containing 30 g/l of sucrose and 6 g/l of agar under a germ-free condition and cultured at a temperature of 20° C. under weak light for 30 days to be germinated and rooted.
The end portions of the roots of the above germinated and rooted cyclamen seedling were cut off with a scalpel, and the seedling was planted in the following solid media. As the media, a large number of experimental plots were prepared by adding NAA and BA as phytohormones to the ⅓ MS medium in concentrations shown in Tables 1 to 3 and further adding 30 to 90 g/l of sucrose. 6 g/l of agar was added to all of the media which were then sterilized in an autoclave to prepare media having a pH of 7.0. 10 ml of each of the solid media was placed in a 50 ml culture test tube. The stationary culture of the seedling planted in each of the media was carried out at 20° C. under weak light for a certain number of days to grow root tubers at the end portions of its roots.

[2] = system: explants from leaves of cyclamen (species: Flamenco); assay: Culture of explants from leaves (comparative); format: cell-based; details: NAA 0.05 mg/l, 20 explants planted, 30 days
Procedure: For comparison, the explants from leaves and petioles of cyclamen (species: Flamenco) were cultured for 30 days by changing the contents of BA and sucrose in a basal medium prepared by adding 0.05 mg/l of NAA and 6 g/l of agar to the ⅓ MS medium and having a pH of 7.0. In all the cases, the root tubers were hardly enlarged by culture and rarely regenerated and accordingly, a clonal plant could not be obtained with high reproducibility.

[3] = sucrose 50 g/l, BA 10.0 mg/l, NAA 0.05 mg/l, 30-th day
[4] = sucrose 70 g/l, BA 0.1 mg/l, NAA 0.01 mg/l, 30-th day
[5] = sucrose 70 g/l, BA 0.1 mg/l, NAA 0.05 mg/l, 30-th day
[6] = sucrose 70 g/l, BA 1.0 mg/l, NAA 0.00 mg/l, 30-th day
[7] = sucrose 70 g/l, BA 1.0 mg/l, NAA 0.01 mg/l, 30-th day
[8] = sucrose 70 g/l, BA 1.0 mg/l, NAA 0.05 mg/l, 30-th day
[9] = sucrose 70 g/l, BA 10.0 mg/l, NAA 0.00 mg/l, 30-th day
[10] = sucrose 70 g/l, BA 10.0 mg/l, NAA 0.01 mg/l, 30-th day
[11] = sucrose 70 g/l, BA 10.0 mg/l, NAA 0.05 mg/l, 30-th day

SMILES: c1ccc(CNc2ncnc3[nH]cnc23)cc1 [BA, benzylaminopurine]
- Number of large root tubers (diameter of 1 mm or more) [1, 3]: 4
- Total number of root tubers [1, 3]: 8
- Number of large root tubers (diameter of 1 mm or more) [1, 4]: 4
- Total number of root tubers [1, 4]: 8
- Average number of root tubers (per a seedling) [1, 5]: 4.4
- Number of large root tubers (diameter of 1 mm or more) [1, 5]: 12
- Total number of root tubers [1, 5]: 14
- Average number of root tubers (per a seedling) ([1]; sucrose 70 g/l, BA 0.1 mg/l, NAA 0.05 mg/l, 50-th day): 4.4
- Number of large root tubers (diameter of 1 mm or more) [1, 6]: 11
- Total number of root tubers [1, 6]: 16
- Number of large root tubers (diameter of 1 mm or more) [1, 7]: 11
- Total number of root tubers [1, 7]: 19
- Average number of root tubers (per a seedling) [1, 8]: 0.8
- Number of large root tubers (diameter of 1 mm or more) [1, 8]: 9
- Total number of root tubers [1, 8]: 11
- Average number of root tubers (per a seedling) ([1]; sucrose 70 g/l, BA 1.0 mg/l, NAA 0.05 mg/l, 50-th day): 0.8
- Average number of root tubers (per a seedling) ([1]; sucrose 70 g/l, BA 2.0 mg/l, NAA 0.05 mg/l, 30-th day): 3.2
- Average number of root tubers (per a seedling) ([1]; sucrose 70 g/l, BA 2.0 mg/l, NAA 0.05 mg/l, 50-th day): 3.2
- Average number of root tubers (per a seedling) ([1]; sucrose 70 g/l, BA 5.0 mg/l, NAA 0.05 mg/l, 30-th day): 1.0
- Average number of root tubers (per a seedling) ([1]; sucrose 70 g/l, BA 5.0 mg/l, NAA 0.05 mg/l, 50-th day): 1.0
- Number of large root tubers (diameter of 1 mm or more) [1, 9]: 3
- Total number of root tubers [1, 9]: 3
- Number of large root tubers (diameter of 1 mm or more) [1, 10]: 3
- Total number of root tubers [1, 10]: 3
- Number of large root tubers (diameter of 1 mm or more) [1, 11]: 8
- Total number of root tubers [1, 11]: 14
- Average number of root tubers (per a seedling) ([1]; sucrose 90 g/l, BA 0.1 mg/l, NAA 0.05 mg/l, 30-th day): 2.4
- Average number of root tubers (per a seedling) ([1]; sucrose 90 g/l, BA 0.1 mg/l, NAA 0.05 mg/l, 50-th day): 2.4
- Average number of root tubers (per a seedling) ([1]; sucrose 90 g/l, BA 1.0 mg/l, NAA 0.05 mg/l, 30-th day): 1.6
- Average number of root tubers (per a seedling) ([1]; sucrose 90 g/l, BA 1.0 mg/l, NAA 0.05 mg/l, 50-th day): 1.6
- Average number of root tubers (per a seedling) ([1]; sucrose 90 g/l, BA 2.0 mg/l, NAA 0.05 mg/l, 30-th day): 1.0
- Average number of root tubers (per a seedling) ([1]; sucrose 90 g/l, BA 2.0 mg/l, NAA 0.05 mg/l, 50-th day): 1.0
- Average number of root tubers (per a seedling) ([1]; sucrose 90 g/l, BA 5.0 mg/l, NAA 0.05 mg/l, 30-th day): 0.8
- Average number of root tubers (per a seedling) ([1]; sucrose 90 g/l, BA 5.0 mg/l, NAA 0.05 mg/l, 50-th day): 0.8
- Number of enlarged explants ([2]; BA 0.05 mg/l): 0
- Number of regenerate explants ([2]; BA 0.05 mg/l): 0
- Number of enlarged explants ([2]; BA 0.05 mg/l, sucrose 30 g/m): 1
- Number of regenerate explants ([2]; BA 0.05 mg/l, sucrose 30 g/m): 0
- Number of enlarged explants ([2]; BA 0.05 mg/l, sucrose 70 g/m): 0
- Number of regenerate explants ([2]; BA 0.05 mg/l, sucrose 70 g/m): 0
- Number of enlarged explants ([2]; BA 0.05 mg/l, sucrose 90 g/m): 0
- Number of regenerate explants ([2]; BA 0.05 mg/l, sucrose 90 g/m): 0
- Number of enlarged explants ([2]; BA 0.1 mg/l): 1
- Number of regenerate explants ([2]; BA 0.1 mg/l): 0
- Number of enlarged explants ([2]; BA 0.1 mg/l, sucrose 30 g/m): 2
- Number of regenerate explants ([2]; BA 0.1 mg/l, sucrose 30 g/m): 1
- Number of enlarged explants ([2]; BA 0.1 mg/l, sucrose 70 g/m): 0
- Number of regenerate explants ([2]; BA 0.1 mg/l, sucrose 70 g/m): 0
- Number of enlarged explants ([2]; BA 0.1 mg/l, sucrose 90 g/m): 0
- Number of regenerate explants ([2]; BA 0.1 mg/l, sucrose 90 g/m): 0
- Number of enlarged explants ([2]; BA 0.5 mg/l): 4
- Number of regenerate explants ([2]; BA 0.5 mg/l): 1
- Number of enlarged explants ([2]; BA 0.5 mg/l, sucrose 30 g/m): 2
- Number of regenerate explants ([2]; BA 0.5 mg/l, sucrose 30 g/m): 2
- Number of enlarged explants ([2]; BA 0.5 mg/l, sucrose 70 g/m): 1
- Number of regenerate explants ([2]; BA 0.5 mg/l, sucrose 70 g/m): 0
- Number of enlarged explants ([2]; BA 0.5 mg/l, sucrose 90 g/m): 2
- Number of regenerate explants ([2]; BA 0.5 mg/l, sucrose 90 g/m): 0
- Number of enlarged explants ([2]; BA 1 mg/l): 4
- Number of regenerate explants ([2]; BA 1 mg/l): 2
- Number of enlarged explants ([2]; BA 1 mg/l, sucrose 30 g/m): 6
- Number of regenerate explants ([2]; BA 1 mg/l, sucrose 30 g/m): 3
- Number of enlarged explants ([2]; BA 1 mg/l, sucrose 70 g/m): 3
- Number of regenerate explants ([2]; BA 1 mg/l, sucrose 70 g/m): 1
- Number of enlarged explants ([2]; BA 1 mg/l, sucrose 90 g/m): 5
- Number of regenerate explants ([2]; BA 1 mg/l, sucrose 90 g/m): 1
